Laboratory results published in the supplement of paper PMC8024199.
± gives the standard deviation of the averaged measurements.

Assays:
Assay in all cases: drug sensitivity score (DSS) (DSS score); higher = more sensitive (stronger growth inhibition); extreme values may be limits of the assay
[1] = tested on: Ba/F3 P210-BCR-ABL1 RUNX1-/- (mouse)
How it was run: (§1)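 Mouse Ba/F3 cells, either CRISPR/Cas9-edited at a target exon or edited-control clones, were screened against a 528-compound library on pre-printed 384-well plates. Each compound was tested at five concentrations across a 10,000-fold range, with 10,000 cells per well in RPMI with 10% FBS for 72 h at 37 °C and 5% CO2. CellTiter-Glo luminescence was scaled between vehicle and positive-control wells, and each dose-response was summarised as a drug sensitivity score. Scores were averaged over two replicates.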

[2] = tested on: Ba/F3 P210-BCR-ABL1 RUNX1-/mut (mouse)
How it was run: as §1

[3] = tested on: Ba/F3 P210-BCR-ABL1 RUNX1wt/wt control (mouse)
How it was run: as §1

| Compound | drug sensitivity score [1] | drug sensitivity score [2] | drug sensitivity score [3] |
| --- | --- | --- | --- |
| COC(=O)c1ccc2c(c1)NC(=O)/C2=C(\Nc1ccc(N(C)C(=O)CN2CCN(C)CC2)cc1)c1ccccc1 [Nintedanib] | 17.4 | 8.15 ± 4.6 | 5.4 ± 0.14 |
| CN1CC[C@@H](NC(=O)Nc2ccc(C#N)cc2)C[C@@H]1c1nc2ccccc2[nH]1 [Glasdegib] | 0 | 0 | 0.05 ± 0.071 |
| C=C1C[C@@H]2CC[C@@]34C[C@H]5O[C@H]6[C@@H](O3)[C@H]3O[C@H](CC[C@@H]3O[C@H]6[C@H]5O4)CC(=O)C[C@@H]3[C@@H](OC)[C@@H](C[C@H](O)CN)O[C@H]3C[C@H]3O[C@@H](CC[C@@H]1O2)C[C@@H](C)C3=C [Eribulin] | 25.9 ± 1.2 | 24.6 ± 0.85 | 17.4 ± 0.14 |
| N.N.[Cl][Pt][Cl] [Cisplatin] | 6.3 ± 1.4 | 7 ± 1.6 | 5.5 ± 0.14 |
| COc1cc(CCc2cc(NC(=O)c3ccc(N4CC(C)NC(C)C4)cc3)n[nH]2)cc(OC)c1 (stereo unspecified) [AZD4547] | 0.2 ± 0.28 | 0 | 0 |
| CCn1c(=O)c(-c2ccc(Cl)cc2Cl)cc2cnc(Nc3ccc(N4CCNCC4)c(F)c3)nc21 [FRAX486] | 23.2 ± 1.2 | 16.4 ± 0.42 | 8.95 ± 0.64 |
| Cc1cc2c(F)c(Oc3ncnn4cc(OC[C@@H](C)O)c(C)c34)ccc2[nH]1 [Brivanib] | 0 | 0 | 0 |
| COCC[n+]1c2c(n(Cc3cnccn3)c1C)C(=O)c1ccccc1C2=O [Sepantronium bromide] | 12.9 ± 1.5 | 17.1 ± 1.1 | 6.85 ± 0.49 |
| C[C@@H]1CN(Cc2ccc(F)cc2)[C@@H](C)CN1C(=O)c1cc2c(C(=O)C(=O)N(C)C)cn(C)c2cc1Cl [Talmapimod] | 0.25 ± 0.35 | 0.1 ± 0.14 | 0 |
| O=c1sn(-c2cccc3ccccc23)c(=O)n1Cc1ccccc1 [Tideglusib] | 0 | 0 | 0 |
| FC(F)(F)c1ccc(/C=C/c2nc(COc3ccc(CCCCn4ccnn4)cc3)co2)cc1 [Mubritinib] | 5.1 ± 0.28 | 5.55 ± 0.49 | 5.95 ± 0.21 |
| COc1cc(C)[nH]c(=O)c1CNC(=O)c1c(C)n([C@H](C)C2CCOCC2)c2ccccc12 [CPI-360] | 0 | 0 | 0 |
| CC(C)n1cnc2c(NCCc3ccc(O)cc3)nc(-c3csc4ccccc34)nc21 [StemRegenin 1] | 3.45 ± 2.9 | 3.05 ± 3.9 | 0.8 ± 0.28 |
| CC(C)(C)C[C@@H]1N[C@@H](C(=O)N[C@H]2CC[C@H](O)CC2)[C@H](c2cccc(Cl)c2F)[C@]12C(=O)Nc1cc(Cl)ccc12 | 6.65 ± 1.3 | 6.95 ± 1.9 | 0.75 ± 0.35 |
| CN(C)C(=N)NC(=N)N [Metformin] | 0 | 0 | 0 |
| Cc1ccc(C(=O)Nc2ccc(Oc3cc4cnn(C)c4cc3-c3cn[nH]c3)c(F)c2)c(=O)n1-c1ccc(F)cc1 [Merestinib] | 0 | 0 | 0.05 ± 0.071 |
| O=C(c1ccc(C(=O)N2CCC(N3CCCC3)CC2)c(Nc2ccccc2)c1)N1CCC(N2CCCC2)CC1 [UNC1215] | 0 | 0 | 0 |
| CCc1c(C(=O)C(N)=O)c2c(OCC(=O)O)cccc2n1Cc1ccccc1 [Varespladib] | 0 | 0.65 ± 0.92 | 0 |
| Nc1ncnc2c1c(COc1cccc(Cl)c1)nn2C1CCOCC1 | 1.6 ± 1.1 | 1.05 ± 1.1 | 0.05 ± 0.071 |
| CCOc1ccn(-c2ccc(F)cc2)c(=O)c1C(=O)Nc1ccc(Oc2ccnc(N)c2Cl)c(F)c1 | 0.1 ± 0.14 | 0 | 0 |
| CCCCNc1ncc(C(=O)NCc2ccc(-n3ccnc3)cc2)c(NC2CCC(O)CC2)n1 (stereo unspecified) [UNC2881] | 0.3 ± 0.42 | 0 | 0 |
| COc1ccc2[nH]cc(/C=C3\C(=O)Nc4ccc(NC(=O)CCN5CCCCC5)cc43)c2c1 | 14.8 ± 2.5 | 15.2 ± 4.4 | 6.05 ± 1.1 |
| COc1ccc(-c2nc(N3CCOCC3)c3sc(CN(C)c4ncc(C(=O)NO)cn4)cc3n2)cn1 [CUDC-907] | 40.9 ± 0.85 | 43.65 ± 0.35 | 39 ± 0.57 |
| Nc1nc(OCc2cc(Br)cs2)c2[nH]cnc2n1 [Lomeguatrib] | 0 | 0.05 ± 0.071 | 0 |

| Compound | drug sensitivity score [1] | drug sensitivity score [2] | drug sensitivity score [3] |
| --- | --- | --- | --- |
| CONC(=O)c1ccccc1Nc1cc(Nc2cc(C)nn2C(C)C)ncc1Cl | 0.15 ± 0.21 | 0.15 ± 0.21 | 0 |
| CCNC(=O)C[C@@H]1N=C(c2ccc(Cl)cc2)c2cc(OC)ccc2-n2c(C)nnc21 [Molibresib] | 18.4 ± 1.6 | 18.1 ± 2 | 12.1 ± 0.14 |
| CC/C(=C(\c1ccc(O)cc1)c1ccc(OCCN(C)C)cc1)c1ccccc1 [4-hydroxytamoxifen] | 8.2 ± 0.42 | 8.3 ± 1.1 | 8.6 ± 0.28 |
| CC[C@]12C=CCN3CC[C@@]4(c5cc([C@@]6(C(=O)OC)C[C@@H]7C[C@@H](C(C)(F)F)CN(Cc8c6[nH]c6ccccc86)C7)c(OC)cc5N(C)[C@H]4[C@@](O)(C(=O)OC)[C@@H]1OC(C)=O)[C@@H]32 [Vinflunine] | 4.4 ± 0.42 | 3.95 ± 0.49 | 3.55 ± 0.21 |
| NC(=O)Nc1cc(-c2cccc(F)c2)sc1C(=O)N[C@H]1CCCNC1 [AZD7762] | 9.8 ± 2 | 7.8 ± 2.1 | 7.1 ± 0.71 |
| COc1ccccc1S(=O)(=O)Nc1ccc2c(c1)CN(C)C(=O)N2 [PFI-1] | 16 ± 2.8 | 15.9 ± 3.9 | 9.35 ± 0.071 |
| CN1CCC(COc2cnc(-c3cccc(Cn4nc(-c5cccc(C#N)c5)ccc4=O)c3)nc2)CC1 [Tepotinib] | 2.8 ± 1.3 | 2.5 ± 3.5 | 0 |
| CC1CCC(n2c3cnccc3c3cnc(Nc4ccc5c(n4)CCN(C(=O)CO)C5)nc32)CC1 (stereo unspecified) [AMG-925] | 4.2 ± 0.42 | 1.8 ± 2.1 | 0 |
| CCN1CCN(Cc2ccc(Nc3ncc(F)c(-c4cc(F)c5nc(C)n(C(C)C)c5c4)n3)nc2)CC1 [Abemaciclib] | 10.2 ± 4.7 | 8.3 ± 6.1 | 3.05 ± 0.071 |
| CC(=O)O[C@]1(C(C)=O)CC[C@H]2[C@@H]3C=C(C)C4=CC(=O)CC[C@]4(C)[C@H]3CC[C@@]21C [Megestrol acetate] | 0.1 ± 0.14 | 0.15 ± 0.21 | 0 |
| O=C(O)C(=O)O.[NH-][C@@H]1CCCC[C@H]1[NH-].[Pt+2] [Oxaliplatin] | 29 ± 0.14 | 28.6 ± 0.71 | 25.85 ± 0.21 |
| O=C(NCc1ccncc1)C12CC3CC(C1)CC(c1ccc(Cl)cc1)(C3)C2 | 4.7 ± 0.57 | 3.3 ± 1.8 | 2.8 ± 0.85 |
| COc1ccc(-c2ccc3ncc4c(c3c2)n(-c2ccc(N3CCNCC3)c(C(F)(F)F)c2)c(=O)n4C)cn1 [NVP-BGT226] | 22.4 ± 2.3 | 23.1 ± 1.4 | 14.5 |
| O=C(c1ccc(OCCN2CCCCC2)cc1)c1c(-c2ccc(O)cc2)sc2cc(O)ccc12 [Raloxifene] | 5.4 ± 2.3 | 5.05 ± 3.3 | 3.7 ± 1.8 |
| COCCNCc1ccc(-c2cc3nccc(Oc4ccc(NC(=S)NC(=O)Cc5ccc(F)cc5)cc4F)c3s2)nc1 [Glesatinib] | 7.4 ± 0.14 | 3.55 ± 1.1 | 0 |
| Cc1sc2c(c1C)C(c1ccc(Cl)cc1)=N[C@@H](CC(=O)Nc1ccc(O)cc1)c1nnc(C)n1-2 [Birabresib] | 24.1 ± 1.3 | 24.6 ± 3 | 15.2 ± 0.49 |
| NS(=O)(=O)NCCNc1nonc1/C(=N/O)Nc1ccc(F)c(Br)c1 [Epacadostat] | 1.05 ± 1.2 | 0.7 ± 0.99 | 0 |
| O=C(O)c1ccc(-c2c[nH]c3ncc(-c4ccccc4)cc23)cc1C1CCCC1 | 2.8 ± 0.57 | 2.5 ± 0.28 | 0.85 ± 0.35 |
| CC(C)(O)CNc1nc(Nc2ccnc(C(F)(F)F)c2)nc(-c2cccc(C(F)(F)F)n2)n1 [Enasidenib] | 0.4 ± 0.14 | 0.55 ± 0.78 | 0 |
| Nc1nc2cc(-c3ccc4ncc(C(=O)N5CCOCC5)n4c3)ccc2o1 [Serabelisib] | 1.5 ± 1.4 | 2.5 ± 3.5 | 0 |
| CNC(=O)c1ccc(N2C(=S)N(c3cnc(C#N)c(C(F)(F)F)c3)C(=O)C23CCC3)cc1F [Apalutamide] | 0 | 0 | 0 |
| Nc1ncnc2c1nc(Cl)n2[C@@H]1O[C@H](CO)[C@@H](O)[C@H]1O [8-chloro-adenosine] | 15.7 ± 1.1 | 13.8 ± 1.3 | 7.95 ± 0.21 |
| CCOc1ccccc1-n1c(C(C)N2CCN(C(=O)COc3ccc(Cl)cc3)CC2)nc2ccccc2c1=O (stereo unspecified) [Erastin] | 11.2 ± 1.1 | 8.45 ± 5.9 | 0 |
